Reference: ChEMBL document CHEMBL4346695, “Thiophenol-formaldehyde triazole causes apoptosis induction in ovary cancer cells and prevents tumor growth formation in mice model” (2019)
Calls of active or inactive are those of the source.

Legend:
Caov-3 cell line = assay: Growth inhibition of human Caov3 cells incubated for 48 hrs by MTT assay; format: functional, cell-based
Homo sapiens = organism: Homo sapiens; assay: Growth inhibition of human ES2 cells incubated for 48 hrs by MTT assay; format: functional
Caov-4 = assay: Growth inhibition of human Caov4 cells incubated for 48 hrs by MTT assay; format: functional, cell-based

Measured: growth inhibition (GI)

FC(F)(F)c1ccccc1-n1cc(COCc2ccccc2S)nn1
active: all assays above

Fc1ccc(-n2cc(COCc3ccccc3S)nn2)c(F)c1
active: all assays above
